Here are results for 33 compounds from patent US20060074243A1, “Hydroxamic acid and amide compounds and their use as protease inhibitors” (Pharmacia Corporation, priority 2002, published 2006).

Where only a bound is given, the exact number is not on record here.

Holding throughout (test): In vitro MMP inhibition analysis (fluorogenic peptide substrate cleavage), Ki
Format in all cases: biochemical
Holding throughout (conditions): Table 2

In one test the target is T1, Human recombinant MMP-2 (Homo sapiens, UniProt P08253).
T1 construct: made in house; host or cells: MMP-2-transfected p2AHT2 cells
T1 sequence (P08253 110-660): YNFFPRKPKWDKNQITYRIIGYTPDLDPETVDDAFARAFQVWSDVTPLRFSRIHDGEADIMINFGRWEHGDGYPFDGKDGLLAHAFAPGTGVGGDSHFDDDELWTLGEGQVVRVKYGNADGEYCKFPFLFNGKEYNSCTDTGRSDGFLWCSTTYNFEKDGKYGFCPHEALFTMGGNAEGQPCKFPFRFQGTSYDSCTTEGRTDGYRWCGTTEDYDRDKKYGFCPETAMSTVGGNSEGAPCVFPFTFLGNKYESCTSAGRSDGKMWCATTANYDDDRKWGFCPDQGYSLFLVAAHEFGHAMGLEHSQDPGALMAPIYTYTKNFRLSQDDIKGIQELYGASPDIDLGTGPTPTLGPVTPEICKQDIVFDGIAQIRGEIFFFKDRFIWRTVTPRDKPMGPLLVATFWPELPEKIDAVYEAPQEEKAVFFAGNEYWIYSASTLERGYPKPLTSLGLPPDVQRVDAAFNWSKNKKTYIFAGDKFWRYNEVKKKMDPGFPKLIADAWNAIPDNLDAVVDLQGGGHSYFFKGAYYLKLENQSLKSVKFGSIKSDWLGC
An outline of the steps: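 Human recombinant MMP-2 from transfected p2AHT2 cells was activated with APMA or trypsin and incubated 1 h at room temperature with compounds and 4 μM MCA-RPLGL(Dpa)ARER-NH2. Buffer was pH 7.5 Tris/NaCl/CaCl2, and fluorescence was read at ex 330/em 420 nm. Ki was fitted by Morrison's equation without substrate correction.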

In another test the target is T2, Human recombinant MMP-9 (Homo sapiens, UniProt P14780).
T2 construct: made in house; host or cells: MMP-9-transfected HT1080 cells (spent media)
T2 sequence (P14780 107-707 limits assumed): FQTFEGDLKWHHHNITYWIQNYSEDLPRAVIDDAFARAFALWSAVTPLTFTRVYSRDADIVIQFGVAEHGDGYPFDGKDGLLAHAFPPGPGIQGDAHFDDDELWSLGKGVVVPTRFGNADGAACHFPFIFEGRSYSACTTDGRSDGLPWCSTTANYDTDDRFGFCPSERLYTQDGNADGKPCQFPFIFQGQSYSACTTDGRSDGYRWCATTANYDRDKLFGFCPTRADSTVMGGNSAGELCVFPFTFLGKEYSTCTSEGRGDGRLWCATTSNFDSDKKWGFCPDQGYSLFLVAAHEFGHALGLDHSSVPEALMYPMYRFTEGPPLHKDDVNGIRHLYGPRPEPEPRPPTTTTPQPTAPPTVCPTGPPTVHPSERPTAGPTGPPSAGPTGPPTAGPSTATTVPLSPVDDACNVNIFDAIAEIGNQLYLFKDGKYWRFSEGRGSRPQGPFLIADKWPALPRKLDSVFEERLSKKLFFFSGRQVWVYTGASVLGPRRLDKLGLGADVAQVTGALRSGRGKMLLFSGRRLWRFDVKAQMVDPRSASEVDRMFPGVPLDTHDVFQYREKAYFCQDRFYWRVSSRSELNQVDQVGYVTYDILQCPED
The essentials:
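Recombinant MMP-9 purified from transfected HT1080 cell media, activated with APMA, trypsin or recombinant MMP-3, assayed in Tris buffer pH 7.5 with CaCl2 and 4 μM fluorogenic MCA/Dpa peptide, 1 h at room temperature (ex 330/em 420 nm). Ki from Morrison-equation regression of velocity; substrate at or below Km, uncorrected.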

In the next test the target is T3, Human recombinant MMP-14 (Homo sapiens, UniProt P50281).
T3 construct: The catalytic domain enzyme was expressed in E. coli inclusion bodies, solubilized in urea; made in house
The essentials:
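Refolded catalytic domain of MMP-14 expressed in E. coli, activated with APMA or trypsin, incubated 1 h at room temperature with 4 μM MCA-peptide substrate in Tris buffer pH 7.5 with CaCl2. Cleavage rate followed by fluorescence (ex 330/em 420 nm). Ki from Morrison-equation fit; substrate at or below Km, so no substrate correction.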

The Ki is the equilibrium dissociation constant of an inhibitor or competing ligand from its target.

Take `O=C(NO)C1(S(=O)(=O)c2ccc(-c3cnc(OCCC4CCCC4)cn3)cc2)CCOCC1` [Example 180]: the results for the Ki at Human recombinant MMP-2, at Human recombinant MMP-9 and on Human recombinant MMP-14 were 0.295 nM, 1.03 nM and 1140 nM, respectively.
On the same counts, the results for `COC(=O)c1ccc2cc(-c3ccc(S(=O)(=O)C4(C(=O)NO)CCOCC4)cc3)ccc2c1` [Example 181] are 0.272 nM, 0.264 nM and 623 nM.
For `COc1ccc(Cc2cnc(-c3ccc(S(=O)(=O)C4(C(=O)NO)CCOCC4)cc3)cn2)cc1` [Example 182], the results for the inhibitory constant (Ki) at Human recombinant MMP-2, at Human recombinant MMP-9 and at Human recombinant MMP-14 were 114 nM, 246 nM and greater than 10000 nM, respectively.
In the case of `CO[C@H]1CC[C@](C(=O)NO)(S(=O)(=O)c2ccc(-c3cnc(CCC(F)(F)C(F)(F)F)cn3)cc2)CC1` [Example 183], the Ki is 0.35 nM on Human recombinant MMP-2, 0.14 nM at Human recombinant MMP-9 and 798 nM at Human recombinant MMP-14.
For `CCCCNC(=O)c1cnc(-c2ccc(S(=O)(=O)C3(C(=O)NO)CCOCC3)cc2)cn1` [Example 184], in that order: 0.8 nM, 13.1 nM and 1290 nM.
On the same counts, the results for `CC(C)CCNC(=O)c1cnc(-c2ccc(S(=O)(=O)C3(C(=O)NO)CCOCC3)cc2)cn1` [Example 185] are 0.91 nM, 13.5 nM and 2050 nM.
Turning to `CC(C)CNC(=O)c1cnc(-c2ccc(S(=O)(=O)C3(C(=O)NO)CCOCC3)cc2)cn1` [Example 186], the Ki at Human recombinant MMP-2 stood at 2.33 nM; on Human recombinant MMP-9 it was 21.7 nM; at Human recombinant MMP-14 it was 4610 nM.
Take `COCCO[C@H]1CC[C@](C(=O)NO)(S(=O)(=O)c2ccc(-c3cnc(CCC(F)(F)C(F)(F)F)cn3)cc2)CC1` [Example 187]: the results for the Ki on Human recombinant MMP-2, on Human recombinant MMP-9 and at Human recombinant MMP-14 were 0.32 nM, 0.16 nM and 625 nM, respectively.
Turning to `O=C(NO)C1(S(=O)(=O)c2ccc(-c3ccc4c(c3)OCO4)cc2)CCOCC1` [Example 188], the inhibitory constant (Ki) on Human recombinant MMP-2 was 0.13 nM; at Human recombinant MMP-9, 4.23 nM; on Human recombinant MMP-14, 27.1 nM.
As to `O=C(NCC1CCCCC1)c1cnc(-c2ccc(S(=O)(=O)C3(C(=O)NO)CCOCC3)cc2)cn1` [Example 190], the inhibitory constant (Ki) amounted to 1.7 nM on Human recombinant MMP-2, 32.3 nM on Human recombinant MMP-9 and 4700 nM on Human recombinant MMP-14.
For `O=C(NCC1CC1)c1cnc(-c2ccc(S(=O)(=O)C3(C(=O)NO)CCOCC3)cc2)cn1` [Example 191], the Ki was found to be 0.75 nM on Human recombinant MMP-2, 1.43 nM on Human recombinant MMP-9 and 930 nM at Human recombinant MMP-14.
`O=C(NCC(F)(F)C(F)(F)F)c1cnc(-c2ccc(S(=O)(=O)C3(C(=O)NO)CCOCC3)cc2)cn1` [Example 192]: the results for the Ki at Human recombinant MMP-2, on Human recombinant MMP-9 and on Human recombinant MMP-14 were 0.89 nM, 41.1 nM and 5920 nM, respectively.
Take `O=C(NO)C1(S(=O)(=O)c2ccc(-c3nc4ccccc4o3)cc2)CCOCC1` [Example 193]: the figures for the Ki at Human recombinant MMP-2, at Human recombinant MMP-9 and on Human recombinant MMP-14 were 1.34 nM, 11.5 nM and 96.7 nM, respectively.
`O=C(NO)C1(S(=O)(=O)c2ccc(-c3cnc4ccccc4n3)cc2)CCOCC1` [Example 194]: the Ki on Human recombinant MMP-2 was 176 nM; at Human recombinant MMP-9, 1260 nM; on Human recombinant MMP-14, greater than 10000 nM.
With `O=C(NO)C1(S(=O)(=O)c2ccc(-c3nc4ccccc4s3)cc2)CCOCC1` [Example 195], the figures for the Ki at Human recombinant MMP-2, on Human recombinant MMP-9 and at Human recombinant MMP-14 were 5.74 nM, 32.2 nM and 1790 nM, respectively.
As for `O=C1c2ccccc2C(=O)N1CCCOc1cccc(-c2ccc(S(=O)(=O)C3(C(=O)NO)CCOCC3)cc2)c1` [Example 196], the inhibitory constant (Ki) on Human recombinant MMP-2 is 947 nM; at Human recombinant MMP-9, 430 nM; on Human recombinant MMP-14, greater than 10000 nM.
Take `O=C(NO)C1(S(=O)(=O)c2ccc(-c3ccccc3CO)cc2)CCOCC1` [Example 197]: the inhibition constant Ki on Human recombinant MMP-2 was 6200 nM; at Human recombinant MMP-9 it was greater than 10000 nM; at Human recombinant MMP-14 it was greater than 10000 nM.
Consider `O=C(NC1CCCC1)c1ccc(-c2ccc(S(=O)(=O)C3(C(=O)NO)CCOCC3)cc2)nc1` [Example 198], for which the Ki came out at 2.16 nM on Human recombinant MMP-2, 28.4 nM at Human recombinant MMP-9 and 5120 nM at Human recombinant MMP-14.
Regarding `C#CCN1CCC(C(=O)NO)(S(=O)(=O)c2ccc(-c3ccc(CCC(F)(F)C(F)(F)F)cn3)cc2)CC1` [Example 199], the figures for the inhibition constant Ki at Human recombinant MMP-2, at Human recombinant MMP-9 and at Human recombinant MMP-14 were 0.085 nM, 0.147 nM and 586 nM, respectively.
Regarding `COCCN1CCC(C(=O)NO)(S(=O)(=O)c2ccc(-c3cnc(OCCC4CCCC4)cn3)cc2)CC1` [Example 200], the Ki at Human recombinant MMP-2 turned out to be 0.404 nM; on Human recombinant MMP-9 it was 0.648 nM; at Human recombinant MMP-14, 942 nM.
For `O=C(NO)C1(S(=O)(=O)c2ccc(-c3ccc(CCC(F)(F)C(F)(F)F)cn3)cc2)CCOCC1` [Example 201], in that order: 0.045 nM, 0.097 nM and 221 nM.
As for `O=C(NO)C1(S(=O)(=O)c2ccc(-c3ccc(CCCC(F)(F)F)cn3)cc2)CC=CC1` [Example 202], the Ki on Human recombinant MMP-2 is 0.32 nM; on Human recombinant MMP-9, 0.578 nM; at Human recombinant MMP-14 it was 1260 nM.
For `CCCCNC(=O)c1ccc(-c2ccc(S(=O)(=O)C3(C(=O)NO)CCOCC3)cc2)nc1` [Example 203], the inhibition constant (Ki) turned out to be 1.77 nM at Human recombinant MMP-2, 61.4 nM on Human recombinant MMP-9 and 7920 nM on Human recombinant MMP-14.
Consider `CC(C)NC(=O)c1ccc(-c2ccc(S(=O)(=O)C3(C(=O)NO)CCOCC3)cc2)nc1` [Example 204], for which the Ki amounted to 4.32 nM on Human recombinant MMP-2, 11.8 nM on Human recombinant MMP-9 and 6370 nM on Human recombinant MMP-14.
In the case of `CC(C)(C)NC(=O)c1ccc(-c2ccc(S(=O)(=O)C3(C(=O)NO)CCOCC3)cc2)nc1` [Example 205], the values for the inhibition constant (Ki) on Human recombinant MMP-2, at Human recombinant MMP-9 and on Human recombinant MMP-14 were 15.1 nM, 21.8 nM and 7630 nM, respectively.
As for `CCCCc1cnc(-c2ccc(S(=O)(=O)C3(C(=O)NO)CCN(CCOC)CC3)cc2)cn1` [Example 206], the results for the inhibition constant Ki on Human recombinant MMP-2, at Human recombinant MMP-9 and on Human recombinant MMP-14 were 2.98 nM, 1.8 nM and greater than 10000 nM, respectively.
`CC[C@@H](C)NC(=O)c1ccc(-c2ccc(S(=O)(=O)C3(C(=O)NO)CCOCC3)cc2)nc1` [Example 207]: the Ki on Human recombinant MMP-2 was 4.99 nM; on Human recombinant MMP-9, 78 nM; at Human recombinant MMP-14, greater than 10000 nM.
On the same counts, the results for `CC[C@H](C)NC(=O)c1ccc(-c2ccc(S(=O)(=O)C3(C(=O)NO)CCOCC3)cc2)nc1` [Example 208] are 10.6 nM, 39.4 nM and greater than 10000 nM.
As for `COCCOC1CCC(C(=O)NO)(S(=O)(=O)c2ccc(-c3ccc(CCCC(F)(F)F)cn3)cc2)CC1` (stereo not drawn) [Example 209], the inhibitory constant (Ki) was 0.081 nM at Human recombinant MMP-2, 0.138 nM at Human recombinant MMP-9 and 272 nM at Human recombinant MMP-14.
On the same counts, the results for `COCCOC1CCC(C(=O)NO)(S(=O)(=O)c2ccc(-c3cnc(CCCC(F)(F)F)cn3)cc2)CC1` (stereo not drawn) [Example 210] are 1.01 nM, 0.75 nM and 3430 nM.
Regarding `O=C(CCc1nccs1)c1ccc(-c2ccc(S(=O)(=O)C3(C(=O)NO)CCOCC3)cc2)cc1` [Example 211], the Ki amounted to 0.246 nM on Human recombinant MMP-2, 9.78 nM on Human recombinant MMP-9 and 773 nM on Human recombinant MMP-14.
Regarding `O=C(Cc1ccc(-c2ccc(S(=O)(=O)C3(C(=O)NO)CCOCC3)cc2)nc1)N1CCCCC1` [Example 212], the Ki was 34.7 nM on Human recombinant MMP-2, 437 nM at Human recombinant MMP-9 and greater than 10000 nM at Human recombinant MMP-14.
Consider `CCN1CCC(C(=O)NO)(S(=O)(=O)c2ccc(-c3cnc(CCC(F)(F)F)cn3)cc2)CC1` [Example 213], for which the Ki on Human recombinant MMP-2 was 3.57 nM; at Human recombinant MMP-9, 4.8 nM; at Human recombinant MMP-14, greater than 10000 nM.
